From ChEMBL document CHEMBL3507680, “University of Dundee, Gates Library screen for HepG2 cell viability”

Experiment: Human HepG2 cell viability assay in 384 well format
Assay type: toxicity, cell-based
Parameters: dose 125 nL, time 70.5 hour; concentration not given beside the values
Conditions: HepG2 cells, read-out: Inhibition

With `CN1CCC(c2cc(C(F)(F)F)n3ccnc3n2)CC1` the cytotoxicity at 70.5 h was 24.8%.
Compound `Cc1nccn1-c1cncc(C2CCCN2Cc2cccnc2)n1` (centres undefined) has a cytotoxicity at 70.5 h of 19.3%.
`c1cnc(N2CCCC(c3cncc(-n4ccnc4)n3)C2)nc1` (centres undefined) gave a cytotoxicity at 70.5 h of 13.4%.
`COCc1cc(O)nc(C2CCCN(Cc3cccc(Cl)c3Cl)C2)n1` (centres undefined) gave a cytotoxicity at 70.5 h of -4.6%.
`COc1cc2nc3n(c(=O)c2cc1OC)CCN(C(=O)C(C)(C)C)CC3` showed a cytotoxicity at 70.5 h of -1.33%.
`OC1CCN(Cc2c(-c3ccco3)[nH]c3ncccc23)CC1` gave a cytotoxicity at 70.5 h of -5.94%.
With `COc1ccc(CN2CCC(c3cc(O)nc(C)n3)C2)c(F)c1` (centres undefined) the cytotoxicity at 70.5 h was -1.14%.
For `CCc1cc(C(=O)N2CCc3nc4c(C)csc4c(=O)n3CC2)on1`, the cytotoxicity at 70.5 h was 20.2%.
`O=C(C1CCCC1)N1CCC(c2n[nH]c3nccnc23)CC1` gave a cytotoxicity at 70.5 h of -1.92%.
With `COc1ccc(OC)c(CN2CCC(c3cc(O)nc(C)n3)C2)c1` (centres undefined) the cytotoxicity at 70.5 h was 22.5%.
Work on `COCc1cc(O)nc(C2CCCN(Cc3ccc(OC)cc3)C2)n1` (centres undefined) yielded a cytotoxicity at 70.5 h of -2.96%.
For `COc1ncc(C2(O)CCN(Cc3cc(F)cc(F)c3)CC2)c(OC)n1`, the cytotoxicity at 70.5 h was -2.18%.
`CC(=O)NC[C@]1(O)CCN(C(=O)c2ccc(C)c(F)c2)C[C@H]1O` showed a cytotoxicity at 70.5 h of -2.74%.
With `O=C(N[C@@H]1CN(Cc2ccc3cc[nH]c3c2)C[C@H]1O)c1cnccn1` the cytotoxicity at 70.5 h was -5.2%.
Compound `O=C(N[C@@H]1CN(Cc2cccc(F)c2)C[C@H]1O)c1cscn1` has a cytotoxicity at 70.5 h of -4.57%.
`CN(c1ccncn1)C1CC2(CCN(C(=O)c3cncs3)C2)C1` (centres undefined) showed a cytotoxicity at 70.5 h of -2.06%.
With `CN(C(=O)C1CCOCC1)[C@@H]1CCC[C@@H](N2CCCC2)[C@@H]1O` the cytotoxicity at 70.5 h was -3.82%.
`Cc1cnc(C2CCCN(C(=O)c3c[nH]c(=O)[nH]c3=O)C2)s1` (centres undefined) gave a cytotoxicity at 70.5 h of -8.7%.
For `Cc1cccc(CN2CCC(c3nnc(-c4scnc4C)o3)CC2)c1`, the cytotoxicity at 70.5 h was 0.33%.
Compound `Cc1ncsc1-c1nnc(C2CCN(Cc3ccc(Cl)cc3)CC2)o1` has a cytotoxicity at 70.5 h of 32.1%.
For `CC(=O)N1CCCC1c1cc(N2CCN(CC(C)(C)C)CC2)cc(C)n1` (centres undefined), the cytotoxicity at 70.5 h was -7.87%.
`CNc1cncc(C2CCCN2C(=O)c2ccc3c(c2)CCC3)n1` (centres undefined) showed a cytotoxicity at 70.5 h of 9.47%.
`CCC(=O)N1CCCC1c1csc(Nc2cnccn2)n1` (centres undefined) gave a cytotoxicity at 70.5 h of -9.64%.
In the case of `CC(=O)N1CCCC(c2cccc(-n3ccnc3)n2)C1` (centres undefined), the cytotoxicity at 70.5 h is reported as -7.9%.
In the case of `c1cnc(N2CCC(c3n[nH]c4ncccc34)C2)nc1` (centres undefined), the cytotoxicity at 70.5 h is reported as -7.93%.
Work on `Cc1ncccc1Oc1nccnc1C1CCCN(C(C)C)C1` (centres undefined) yielded a cytotoxicity at 70.5 h of -6.39%.
`Cc1ccc(Oc2nccnc2C2CCN(C(=O)C(C)(C)N)CC2)cc1` showed a cytotoxicity at 70.5 h of -6.45%.
In the case of `CCc1cc(=O)[nH]c(-c2ccc(NC(CO)CC(C)C)nc2)n1` (centres undefined), the cytotoxicity at 70.5 h is reported as -2.63%.
`CC(CNC(=O)CCCn1cncn1)N1CCc2ccccc2C1` (centres undefined) gave a cytotoxicity at 70.5 h of 11.6%.
Work on `CC(C)C(CNC(=O)CCn1cncn1)N1CCc2ccccc2C1` (centres undefined) yielded a cytotoxicity at 70.5 h of -6.95%.
Work on `Cc1cccc(N2CCN(C(=O)CNCCn3cccn3)CC2)c1` yielded a cytotoxicity at 70.5 h of 9.75%.
With `Cc1ccc(S(C)(=O)=O)cc1NCC(=O)NCCC1=CCCCC1` the cytotoxicity at 70.5 h was -9.03%.
`COC(=O)c1cccc(S(=O)(=O)NCC(c2ccco2)N2CCCC2)c1` (centres undefined) showed a cytotoxicity at 70.5 h of -14.2%.
In the case of `COCCNC(=O)NCc1ccc(-n2ccc(C(F)(F)F)n2)cc1`, the cytotoxicity at 70.5 h is reported as -7.44%.
With `COC(=O)c1ccc2c(c1)CCCN2S(=O)(=O)c1cn(C)c(C)n1` the cytotoxicity at 70.5 h was 1.33%.
Work on `COC(=O)C1CCN(C(=O)Cn2ccc(-c3ccccc3)n2)CC1` yielded a cytotoxicity at 70.5 h of -10.6%.
`Cc1cccc(N2CCN(C(=O)CNCCn3cc(C)cn3)CC2)c1` gave a cytotoxicity at 70.5 h of 45%.
Compound `CC(C)c1noc(OCC(=O)N2CCCCC2C)n1` (centres undefined) has a cytotoxicity at 70.5 h of -2.39%.
For `CC1CCCCN1C(=O)COc1nc(C(C)(C)C)no1` (centres undefined), the cytotoxicity at 70.5 h was -2.52%.
For `CCOC(=O)C1(NC(=O)CCNc2cc(C)ccc2OC)CCCCC1`, the cytotoxicity at 70.5 h was -4.71%.
With `O=C(c1ccc2[nH]cnc2c1)N1CCC(COc2ccccn2)CC1` the cytotoxicity at 70.5 h was -5.85%.
In the case of `c1cc(N2CCC(CN3CCOCC3)CC2)c2sccc2n1`, the cytotoxicity at 70.5 h is reported as 0.228%.
`CNS(=O)(=O)c1c(C)sc2ccccc12` gave a cytotoxicity at 70.5 h of -0.847%.
Work on `NC(=O)C1CCN(C(=O)NC(Cc2ccccc2)C(F)(F)F)CC1` (centres undefined) yielded a cytotoxicity at 70.5 h of 3.75%.
In the case of `CC(C)(C)CC(NC(=O)N1CCS(=O)(=O)CC1)C(F)(F)F` (centres undefined), the cytotoxicity at 70.5 h is reported as -4.28%.
Work on `CC(C)(C)CC(NC(=O)N1CCC(C(N)=O)CC1)C(F)(F)F` (centres undefined) yielded a cytotoxicity at 70.5 h of 5.66%.
Compound `CC(C)(NCCOc1ccc(CC#N)cc1)c1nccs1` has a cytotoxicity at 70.5 h of -2.87%.
`CCC(CNC(=O)c1cccc(S(=O)(=O)NC)c1)N1CCCC1` (centres undefined) gave a cytotoxicity at 70.5 h of -2.78%.
Compound `CC1CCCCN1C(=O)COc1nc(Cc2ccc(F)cc2)no1` (centres undefined) has a cytotoxicity at 70.5 h of -6.78%.
`Cc1cc(C)cc(NCCC(=O)NCc2cccnc2N(C)C)c1` showed a cytotoxicity at 70.5 h of -5.81%.
`CN(CCc1ccncc1)CCc1nccs1` gave a cytotoxicity at 70.5 h of -12.8%.
`COCC1CCN(c2ccnc3ccsc23)C1` (centres undefined) showed a cytotoxicity at 70.5 h of -5.48%.
For `CN(CCc1cccs1)CCc1nccs1`, the cytotoxicity at 70.5 h was 0.685%.
`CC(CNC(=O)N(C)Cc1ccco1)N1CCc2sccc2C1` (centres undefined) showed a cytotoxicity at 70.5 h of 4.72%.
Work on `CC(CNC(=O)NCc1ccco1)N1CCc2sccc2C1` (centres undefined) yielded a cytotoxicity at 70.5 h of 36.1%.
Work on `CCn1c(=O)n(CCC(=O)N(C)Cc2ccc(C)o2)c2ccccc21` yielded a cytotoxicity at 70.5 h of -4.18%.
`Cn1c(CN2CCC(N3CCNC3=O)CC2)cc(=O)n(C)c1=O` gave a cytotoxicity at 70.5 h of -7.49%.
`CC(=O)N1CCC(NC(=O)Cc2nc3nc(C)cc(C)n3n2)CC1` showed a cytotoxicity at 70.5 h of -3.83%.
In the case of `CC(Cn1cccn1)Nc1cnc2ccccc2n1` (centres undefined), the cytotoxicity at 70.5 h is reported as -0.212%.
In the case of `Cc1cnn(CC(C)Nc2nc3ccccc3o2)c1` (centres undefined), the cytotoxicity at 70.5 h is reported as 24.3%.
With `Cc1cnn(CCNc2cnc3ccccc3n2)c1` the cytotoxicity at 70.5 h was -1.2%.
`Cc1ccc(C(C)NC(=O)CSCC(N)=O)cc1` (centres undefined) gave a cytotoxicity at 70.5 h of -0.981%.
`O=C(CCc1ccccc1)NCC(O)c1c(F)cccc1F` (centres undefined) gave a cytotoxicity at 70.5 h of -3.12%.
`CS(=O)(=O)CCNC(=O)Nc1ccc(Cl)cc1-n1cccc1` gave a cytotoxicity at 70.5 h of 23.7%.
`O=C(Nc1cnn(-c2ccccc2Cl)c1)NC1CCC(O)CC1` (centres undefined) gave a cytotoxicity at 70.5 h of 23.9%.
`COCCC(=O)NCC(O)c1c(F)cccc1F` (centres undefined) gave a cytotoxicity at 70.5 h of -7.9%.
With `CCOCCS(=O)(=O)c1nnc(NCCOC)s1` the cytotoxicity at 70.5 h was 23.1%.
For `COc1ccc(C2CCN(Cc3cscn3)CC2)cc1`, the cytotoxicity at 70.5 h was 0.308%.
With `Cc1ccc(C(C)NC(=O)CCc2cnn(C)c2)cc1F` (centres undefined) the cytotoxicity at 70.5 h was -8.21%.
For `CNC(=O)N(C)CC1(c2ccc(Br)cc2)CC1`, the cytotoxicity at 70.5 h was -3.73%.
In the case of `CN(Cc1ccco1)C(=O)C1CCCc2ccccc21` (centres undefined), the cytotoxicity at 70.5 h is reported as -3.68%.
Compound `CCC(c1ccc(F)cc1F)N1CCN(CCO)CC1` (centres undefined) has a cytotoxicity at 70.5 h of -6.18%.
Compound `CC(CNC(=O)CCc1ccco1)N1CCc2sccc2C1` (centres undefined) has a cytotoxicity at 70.5 h of 3.4%.
`N#CCCN(Cc1ccco1)C(=O)C1CCCc2ccccc21` (centres undefined) gave a cytotoxicity at 70.5 h of -6.61%.
For `CCSCc1ccc(C(=O)N2CCCN(CC(N)=O)CC2)cc1`, the cytotoxicity at 70.5 h was -5.22%.
`Cn1cccc1C(=O)COc1ccc(S(N)(=O)=O)cc1` gave a cytotoxicity at 70.5 h of 0.32%.
In the case of `Cc1ccc(NC(=O)NCC2CCS(=O)(=O)C2)cc1Cl` (centres undefined), the cytotoxicity at 70.5 h is reported as 0.575%.
`O=C(c1cccc(F)c1)N1CCCC1c1ncc2c(n1)CCNC2` (centres undefined) gave a cytotoxicity at 70.5 h of -4.38%.
Compound `COc1ncc(C2(O)CCN(Cc3cc(F)ccc3F)CC2)c(OC)n1` has a cytotoxicity at 70.5 h of -5.13%.
`CC(C)(N)CNS(=O)(=O)Cc1cccc2cccnc12` showed a cytotoxicity at 70.5 h of 1.51%.
`Cc1cc(C[C@@H]2CCC[C@H]2NCc2c[nH]nc2-c2ccccc2)on1` gave a cytotoxicity at 70.5 h of 20.7%.
With `CC1(C)CC(N(Cc2ccncc2)Cc2cccnc2)CC(C)(C)N1` the cytotoxicity at 70.5 h was 27.1%.
For `Cc1ccsc1CN(Cc1cccnc1)C1CC(C)(C)NC(C)(C)C1`, the cytotoxicity at 70.5 h was 5.95%.
`Cc1cc(C[C@@H]2CCC[C@H]2NCc2cccc(F)c2F)on1` showed a cytotoxicity at 70.5 h of -2.88%.
